Measurements as given in ChEMBL document CHEMBL2417370, “The effect of novel [3-fluoro-(2-phosphonoethoxy)propyl]purines on the inhibition of Plasmodium falciparum, Plasmodium vivax and human hypoxanthine-guanine-(xanthine) phosphoribosyltransferases” (Eur J Med Chem, 2013).
Activity calls are given as the source filed them. The rule behind the calls is not given here.

What was measured:
[1] = Inhibition of recombinant Plasmodium falciparum HGXPRT expressed in Escherichia coli Sphi606 cells by spectrophotometric analysis
[2] = Inhibition of recombinant Plasmodium vivax HGXPRT expressed in Escherichia coli by spectrophotometric analysis
[3] = target: T1, Hypoxanthine-guanine phosphoribosyltransferase (Homo sapiens, UniProt P00492); test: Inhibition of recombinant human HGPRT expressed in Escherichia coli Sphi606 cells by spectrophotometric analysis
T1 sequence (P00492 whole entry): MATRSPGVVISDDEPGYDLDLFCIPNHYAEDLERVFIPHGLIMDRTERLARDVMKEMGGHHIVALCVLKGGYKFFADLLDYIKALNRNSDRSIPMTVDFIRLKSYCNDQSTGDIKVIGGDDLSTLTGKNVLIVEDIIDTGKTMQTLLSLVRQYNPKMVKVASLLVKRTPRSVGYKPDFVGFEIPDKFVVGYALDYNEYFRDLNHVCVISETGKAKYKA

[4] = system: Human immunodeficiency virus; test: Antiviral activity against HIV; assay type: functional, organism-based
[5] = system: Maize streak virus; test: Antiviral activity against MSV; assay type: functional
[6] = system: Hepatitis C virus; test: Antiviral activity against HCV; assay type: functional, organism-based; settings: Hepacivirus hominis
[7] = system: Bordetella pertussis; test: Effect on Bordetella pertussis adenylyl cyclase

| Compound | Ki [3] | Activity [7] | Ki [1] | Ki [2] | Activity [4] | Activity [5] | Activity [6] |
| --- | --- | --- | --- | --- | --- | --- | --- |
| Nc1nc(O)c2ncn(C[C@H](CF)OCP(=O)(O)O)c2n1 | ≥ 300 µM |  | ≥ 300 µM | ≥ 300 µM |  |  |  |
| O=c1[nH]cnc2c1ncn2C[C@@H](CF)OCP(=O)(O)O | ≥ 250 µM |  | 13 µM | ≥ 250 µM |  |  |  |
| O=c1[nH]cnc2c1ncn2C[C@H](CF)OCP(=O)(O)O | ≥ 200 µM |  | 63 µM | ≥ 200 µM |  |  |  |
| O=c1[nH]cnc2c1ncn2C[C@H](CF)OCCP(=O)(O)O | ≥ 200 µM | inactive | ≥ 200 µM | ≥ 200 µM | inactive | inactive | inactive |
| Nc1nc(N)c2ncn(CC(CF)OCCP(=O)(O)O)c2n1 (stereo unspecified) |  | inactive |  |  | inactive | inactive | inactive |
| O=c1[nH]cnc2c1ncn2C[C@@H](CF)OCCP(=O)(O)O | 1.6 µM | inactive | ≥ 300 µM | ≥ 300 µM | inactive | inactive | inactive |
| Nc1ncnc2c1ncn2CC(CF)OCCP(=O)(O)O (stereo unspecified) |  | inactive |  |  | inactive | inactive | inactive |

Continued, in another order:

| Ki [3] | Activity [7] | Compound | Ki [1] | Ki [2] | Activity [4] | Activity [5] | Activity [6] |
| --- | --- | --- | --- | --- | --- | --- | --- |
|  | inactive | Nc1nc(NC2CC2)c2ncn(CC(CF)OCCP(=O)(O)O)c2n1 (stereo unspecified) |  |  | inactive | inactive | inactive |
| ≥ 250 µM |  | Nc1nc(O)c2ncn(C[C@@H](CF)OCP(=O)(O)O)c2n1 | ≥ 250 µM | ≥ 250 µM |  |  |  |
| 0.1 µM | inactive | Nc1nc2c(ncn2C[C@@H](CF)OCCP(=O)(O)O)c(=O)[nH]1 | 1.2 µM | 3.4 µM | inactive | inactive | inactive |
| 4.7 µM | inactive | Nc1nc2c(ncn2C[C@H](CF)OCCP(=O)(O)O)c(=O)[nH]1 | 1 µM | 29 µM | inactive | inactive | inactive |
| 3.7 µM | inactive | Nc1nc2c(ncn2CC(CF)OCCP(=O)(O)O)c(=O)[nH]1 (racemic) | 1 µM | 7 µM | inactive | inactive | inactive |
| 5.4 µM | inactive | O=c1[nH]cnc2c1ncn2CC(CF)OCCP(=O)(O)O (racemic) | ≥ 200 µM | ≥ 100 µM | inactive | inactive | inactive |
